Test results taken from patent US11319311B2, “Crystalline forms of Actinomycin D for treatment of cancer” (TRANSGENEX NANOBIOTECH, INC., priority 2018, dated 2022).
pIC50: −log10 of the molar value. Like-named read-outs stand apart in the source and are kept apart here.

Tests used:
PANC-1 = test: Monolayer cell culture IC50 (CellTiter-Glo viability), PANC-1; format: cell-based; conditions: for pIC50: Pancreatic, PANC-1, monolayer, 72 hours treatment, average of three replications; for IC50: Homo sapiens, PANC-1, 72 h
Procedure: (§1) Cancer cell lines listed in Table 1 were subjected for testing anti-cancer potency or the half maximal inhibitory concentration (IC50) of the D-Actinomycin (DACT) molecular complexes.
(§2) The SK-ES-1, U-2 OS, and SAOS-2 cells were cultured in a growth medium that is ATCC-formulated McCoy's 5a Medium Modified, Catalog No. 30-2007. The PC-3, PANC-1, SK-Mel-5, A549, H460, and H1299 were cultured in a growth medium that is ATCC-formulated Dulbecco's Modified Eagle's Medium (DMEM), Catalog No. 30-2002. The cells were seeded on 96-well microtiter plates with 3500 cells per well and cultured in an incubator (Model 3120, Thermo Scientific, USA) with a constant temperature at 37° C. and 5% carbon dioxide (CO2) gas for 24 hours.
(§3) The new DACT-molecular complexes were made into a series with concentration of 200 nM to 40 nM, 8 nM, 1.6 nM, 0.32 nM, and 0.064 nM. 100 μl of each solution was then added into each well to bring out the final concentration of the drug treatment at 100 nM, 20 nM, 4 nM, 0.8 nM, 0.16 nM, or 0.032 nM, respectively.
(§4) The treated cells in the 96 well plate was then further cultured at the same conditions for 72 hours and then subjected for a final cell viability measurement. The measurement used a homogeneous method to determine the number of metabolically active cells presented in each of treatments. A testing reagent for the measurement is a mixture solution of the CellTiter-Glo® 2.0 reagent (CTG, Promega Cat #G9243, USA) and growth medium in 1:1 ratio in this respect.
(§5) The 96-well plate with the new molecular complex treated cells was taken out from incubator after the 72 hours of incubation, and the treatment solution in each well was removed using a multichannel pipette, and 100 μl of the testing reagent were added into each well. The plate was then placed on a plate shaker for 15 min. The plate was covered with a piece of aluminum foil to protect the CTG luminescence during the shaking time.
(§6) Then 90 μl of the 100 μl testing reagent were transferred into an opaque-walled 96-well plate for the CTG luminescence reading on a plate reader (SynergyH4 Hybrid Reader, Biotek, USA). The luminescence intensity of each treatment was positively correlated with the number of cells survived during the treatments.
(§7) All the treatment data was normalized by comparing with the control samples that had only growth medium without any molecular complexes. The half maximal inhibitory concentration (IC50) data was calculated using the nonlinear regression model and dose-responses (inhibition) curve built in the software. Each of treatments was performed in three replications each time and repeated three times for validation. The IC50 average […] (Avg) and standard deviation (STDV) were calculated based on the three replications.

[1] = Accelerated stability studies (PXRD physical form stability); format: physicochemical; conditions: accelerated conditions 75% humidity and 40° C., one year, by PXRD
Procedure: Stability studies of the DACT novel forms were conducted using accelerated conditions (75% humidity and 40° C.) of which are obvious to the artisan in the field, for more than one year. […] Selected data of the novel complexes of DACT:methylparaben, propylparaben and diphenic acid proves this point.

SK-ES-1 = test: Monolayer cell culture IC50 (CellTiter-Glo viability), SK-ES-1; format: cell-based, human; conditions: Sarcoma, SK-ES-1, monolayer, 72 hours treatment, average of three replications
Procedure: as §1, §2, §3, §4, §5, §6, §7

SK-Mel-5 = test: Monolayer cell culture IC50 (CellTiter-Glo viability), SK-Mel-5; format: cell-based; conditions: for pIC50: Skin, SK-Mel-5, monolayer, 72 hours treatment, average of three replications; for IC50: Homo sapiens, SK-MEL-5, 72 h
Procedure: as §1, §2, §3, §4, §5, §6, §7

U-2 OS = test: Monolayer cell culture IC50 (CellTiter-Glo viability), U-2 OS; format: cell-based; conditions: for pIC50: Sarcoma, U-2 OS, monolayer, 72 hours treatment, average of three replications; for IC50: Homo sapiens, U2OS, 72 h
Procedure: as §1, §2, §3, §4, §5, §6, §7

PC-3 = test: Monolayer cell culture IC50 (CellTiter-Glo viability), PC-3; format: cell-based; conditions: for pIC50: Prostate, PC-3, monolayer, 72 hours treatment, average of three replications; for IC50: Homo sapiens, PC-3, 72 h
Procedure: as §1, §2, §3, §4, §5, §6, §7

H1299 = test: Monolayer cell culture IC50 (CellTiter-Glo viability), H1299; format: cell-based; conditions: Homo sapiens, NCI-H1299, Lung, 72 hours treatment, average of three replications
Procedure: as §1, §2, §3, §4, §5, §6, §7

[2] = in vivo; cited from earlier work
[3] = in vivo; cited from earlier work; remark: listed apart in the source
H460 = test: Monolayer cell culture IC50 (CellTiter-Glo viability), H460; format: cell-based; conditions: Homo sapiens, NCI-H460, Lung, 72 hours treatment, average of three replications
Procedure: as §1, §2, §3, §4, §5, §6, §7

A549 = test: Monolayer cell culture IC50 (CellTiter-Glo viability), A549; format: cell-based; conditions: Homo sapiens, Lung, 72 hours treatment, average of three replications
Procedure: as §1, §2, §3, §4, §5, §6, §7

[4] = Test I, read-out: IC50 Test (I) Avg
[5] = Test II, read-out: IC50 Test (II) Avg
[6] = Test III, read-out: IC50 Test (III) Avg
[7] = read-out: IC50 Test (I) Avg (nM)
[8] = read-out: IC50 Test (II) Avg (nM)
[9] = read-out: IC50 Test (III) Avg (nM)

COC(=O)c1ccc(O)cc1.Cc1c2oc3c(C)ccc(C(=O)NC4C(=O)NC(C(C)C)C(=O)N5CCCC5C(=O)N(C)CC(=O)N(C)C(C(C)C)C(=O)OC4C)c3nc-2c(C(=O)NC2C(=O)NC(C(C)C)C(=O)N3CCCC3C(=O)N(C)CC(=O)N(C)C(C(C)C)C(=O)OC2C)c(N)c1=O (centres unmarked) [DACT-methylparaben]
pIC50 (PANC-1; [4]): 8.38 | pIC50 (PANC-1; [5]): 8.58 | pIC50 (PANC-1; [6]): 8.46 | physical form stability [1]: stable | pIC50 (SK-ES-1; [4]): 9.15 | pIC50 (SK-ES-1; [5]): 9.29 | pIC50 (SK-ES-1; [6]): 9.24 | pIC50 (SK-Mel-5; [4]): 9.44 | pIC50 (SK-Mel-5; [5]): 9.43 | pIC50 (SK-Mel-5; [6]): 8.64 | pIC50 (U-2 OS; [4]): 8.37 | pIC50 (U-2 OS; [5]): 8.36 | pIC50 (U-2 OS; [6]): 8.64 | pIC50 (PC-3; [4]): 8.15 | pIC50 (PC-3; [5]): 8.26 | pIC50 (PC-3; [6]): 8.21

Cc1c2oc3c(C)ccc(C(=O)NC4C(=O)NC(C(C)C)C(=O)N5CCCC5C(=O)N(C)CC(=O)N(C)C(C(C)C)C(=O)OC4C)c3nc-2c(C(=O)NC2C(=O)NC(C(C)C)C(=O)N3CCCC3C(=O)N(C)CC(=O)N(C)C(C(C)C)C(=O)OC2C)c(N)c1=O.O=C(O)c1ccccc1-c1ccccc1C(=O)O (centres unmarked) [DACT-diphenic Acid]
pIC50 (PANC-1; [4]): 8.27 | pIC50 (PANC-1; [5]): 8.49 | pIC50 (PANC-1; [6]): 8.42 | physical form stability [1]: stable | pIC50 (SK-Mel-5; [4]): 9.38 | pIC50 (SK-Mel-5; [5]): 9.49 | pIC50 (SK-Mel-5; [6]): 8.64 | pIC50 (U-2 OS; [4]): 8.36 | pIC50 (U-2 OS; [5]): 8.37 | pIC50 (U-2 OS; [6]): 8.57 | pIC50 (PC-3; [4]): 8.20 | pIC50 (PC-3; [5]): 8.23 | pIC50 (PC-3; [6]): 8.18

Cc1c2oc3c(C)ccc(C(=O)N[C@@H]4C(=O)N[C@H](C(C)C)C(=O)N5CCC[C@H]5C(=O)N(C)CC(=O)N(C)[C@@H](C(C)C)C(=O)O[C@@H]4C)c3nc-2c(C(=O)N[C@@H]2C(=O)N[C@H](C(C)C)C(=O)N3CCC[C@H]3C(=O)N(C)CC(=O)N(C)[C@@H](C(C)C)C(=O)O[C@@H]2C)c(N)c1=O [DACT, reference compound]
pIC50 (H1299; [4]): 8.75 | pIC50 (H1299; [5]): 8.94 | pIC50 (H1299; [6]): 8.89 | IC50 (PANC-1; [7]): 5.68 nM | IC50 (PANC-1; [8]): 4.56 nM | IC50 (PANC-1; [9]): 4.74 nM | absorption from the GI tract [2]: poorly absorbed | pIC50 (SK-ES-1; Homo sapiens, SK-ES1, Test I, read-out: IC50 Test (I) Avg): 8.99 | pIC50 (SK-ES-1; Homo sapiens, SK-ES1, Test II, read-out: IC50 Test (II) Avg): 9.25 | pIC50 (SK-ES-1; Homo sapiens, SK-ES1, Test III, read-out: IC50 Test (III) Avg): 9.20 | IC50 (SK-Mel-5; [7]): 0.61 nM | IC50 (SK-Mel-5; [8]): 0.5 nM | IC50 (SK-Mel-5; [9]): 2.9 nM | IC50 (U-2 OS; [7]): 5.29 nM | IC50 (U-2 OS; [8]): 5.63 nM | IC50 (U-2 OS; [9]): 2.62 nM | irritation to tissues [3]: extremely irritating to tissues | pIC50 (H460; [4]): 9.46 | pIC50 (H460; [5]): 9.46 | pIC50 (H460; [6]): 9.46 | IC50 (PC-3; [7]): 8.81 nM | IC50 (PC-3; [8]): 7 nM | IC50 (PC-3; [9]): 7.28 nM | pIC50 (A549; [4]): 8.79 | pIC50 (A549; [5]): 8.73 | pIC50 (A549; [6]): 8.79

Cc1c2oc3c(C)ccc(C(=O)NC4C(=O)NC(C(C)C)C(=O)N5CCCC5C(=O)N(C)CC(=O)N(C)C(C(C)C)C(=O)OC4C)c3nc-2c(C(=O)NC2C(=O)NC(C(C)C)C(=O)N3CCCC3C(=O)N(C)CC(=O)N(C)C(C(C)C)C(=O)OC2C)c(N)c1=O.NC(CS)C(=O)O (racemic) [DACT:DL-cysteine]
physical form stability [1]: shown physical stability
